Measured values taken from article PMC7756341, “Liposomal FRET Assay Identifies Potent Drug‐Like Inhibitors of the Ceramide Transport Protein (CERT)” (Chemistry (Weinheim an Der Bergstrasse, Germany), 2020).

Target: T1, CERT (Homo sapiens, UniProt Q9Y5P4)
T1 construct: made in house; host or cells: E. coli BL21 (DE3), pET-28a(+)
T1 sequence (Q9Y5P4 1-598 isoform Q9Y5P4-2): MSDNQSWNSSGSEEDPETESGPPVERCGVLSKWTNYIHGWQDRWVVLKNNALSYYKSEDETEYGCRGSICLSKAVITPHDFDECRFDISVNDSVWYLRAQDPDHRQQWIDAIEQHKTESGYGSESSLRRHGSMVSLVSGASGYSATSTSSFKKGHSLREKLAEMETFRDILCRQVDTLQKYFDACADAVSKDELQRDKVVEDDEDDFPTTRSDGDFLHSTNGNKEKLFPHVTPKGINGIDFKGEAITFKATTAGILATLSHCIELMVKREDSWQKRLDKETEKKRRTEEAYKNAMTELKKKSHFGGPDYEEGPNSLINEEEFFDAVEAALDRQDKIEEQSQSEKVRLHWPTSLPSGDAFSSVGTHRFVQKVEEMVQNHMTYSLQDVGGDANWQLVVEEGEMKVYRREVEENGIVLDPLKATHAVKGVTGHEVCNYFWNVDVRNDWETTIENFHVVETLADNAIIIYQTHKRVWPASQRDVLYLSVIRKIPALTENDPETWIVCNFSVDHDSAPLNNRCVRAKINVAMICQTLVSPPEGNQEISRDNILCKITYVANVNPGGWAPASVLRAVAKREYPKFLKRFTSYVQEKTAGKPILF
Experiment: Liposomal FRET CERT transfer assay (NBD-Cer/NR-Cer), 96-well
Type: biochemical
Conditions: dose-response
Text: 2. Assessment of CERT-transfer Activity
2.1 Reagents and materials
Egg phosphatidylcholine (PC) and egg phosphatidylethanolamine (PE) were purchased from Sigma. Fluorescence (nitrobenzoxadiazole (NBD), 7-Methoxycumarin-3-carboxylat (MCC), 9-Diethylamino-5-oxo-5H-benzo[a]phenoxazin-2-yl (NR)) labeled-ceramide, were chemically synthesized (section 5). (1R,3S) and (1R, 3R) -N-(3Hydroxy-1-hydroxymethyl-3-phenylpropyl)- dodecamide (HPA-12) were synthesized as previously described.
Two donor and acceptor liposomes were prepared one acts as donor liposome (NBD-Cer or MCC-Cer) and the other as acceptor liposome (NR-Cer or NBD-Cer). The donor and acceptor liposomes were mixed in proper percentage for establishing two fluorescence resonance energy transfer (FRET) systems (MCC/NBD-ceramide system, or NBD/ NR-ceramide system). The stock solutions of the phospholipids and the fluorescently-labeled ceramide were prepared by dissolving in a mixture of methanol:chloroform (1:1). The liposomes were prepared by mixing […] phosphatidylcholine, 333 µmol phosphatidylethanolamine, and […] fluorescently-labeled ceramide (4:1:1 molar ratio) in siliconized Eppendorf tubes. The mixture was dried under argon stream to yield a waxy lipid film. The obtained waxy residue was hydrated with Tris.HCl buffer (1mL, 2 mM, pH 7.4) to a final concentration of 2 mM and the resulting mixture was vortexed for 1 min. The lipid mixture was subjected to 6 freeze-thawing cycles with liquid nitrogen and shaking incubator at 37 °C. Afterwards, the lipid suspension was sonicated with a Cup-Horn sonicator for 20 sec, followed by vigorous shaking on vortex for 1 min. Finally, the lipid mixture was extruded with a mini extruder (Avanti polar lipids) by forcing the suspension through two polycarbonate filters with 100 nm pore size for 13 times to afford a solution of liposome type.
2.4 Development of high throughput screening CERT-assay (96-well plate format) The assay was performed in non-binding clear-bottom 96-well microplate (Greiner Bio-One). […] The plate was placed in the microplate reader (LABTECH) at 30°C with shaking. The fluorescence was measured from the bottom over 1h (number of cycles 35, delay 70 sec) with excitation filter 485 nm and emission filter 640 nm (for NBD-Cer/NR-ceramide FRET system) or excitation filter 347 nm and emission filter 536 nm (for Coumarin (MMC-Cer), NBD-ceramide (NBD-Cer) FRET system). The transfer efficiency was calculated using the formula: Ix = I0(À1-X)/I(À2-Y), where À1 is the average of the florescence of the control of liposome mixture in Tris.HCl buffer, X is the average of the fluorescence of the buffer alone, À2 is the fluorescence average of the assay mixture, Y is the fluorescence average of the CERT aliquot with […]

activity in the transfer assay	Structure (SMILES)
weak dose‐response	CC1=NN(c2ccc(C)c(C)c2)C(=O)/C1=N\Nc1cccc(-c2cccc(C(=O)O)c2)c1O [17C9, Eltrombopag]
high activity	O=C(NC1CCN(CCCCC2(C(=O)NCC(F)(F)F)c3ccccc3-c3ccccc32)CC1)c1ccccc1-c1ccc(C(F)(F)F)cc1 [8E8, lomitapide]
high activity	CCCC(=O)OCOC(=O)C1=C(C)NC(C)=C(C(=O)OC)C1c1cccc(Cl)c1Cl (stereo not shown) [6B11, Clevidipine butyrate]

Structure (SMILES)	activity in the transfer assay
Cc1cc(C2=NOC(c3cc(Cl)cc(Cl)c3)(C(F)(F)F)C2)ccc1C(=O)NCC(=O)NCC(F)(F)F (stereo not shown) [20D5, Fluralaner]	high activity
